This data set is described as follows: activity coefficient (dimensionless); of the first substance listed, at infinite dilution; xn = mol fraction of the nth substance listed. As to conditions: 101 kPa, Liquid, Chromatography, x1 = 0.

± gives the expanded uncertainty stated by the source.

Among the data in the NIST ThermoML archive (doi:10.1016/j.jct.2012.03.015) are activity coefficient values, retold here.

Take `CCC(=O)OC` [methyl propanoate] + COCC[N+]1(C)CCCC1.O=S(=O)([N-]S(=O)(=O)C(F)(F)F)C(F)(F)F: the activity coefficient was found to be 0.92 ± 0.06 (318.15 K); 0.94 ± 0.06 (328.15 K); 0.96 ± 0.06 (338.15 K); 0.98 ± 0.06 (348.15 K); 0.99 ± 0.06 (358.15 K); 1.01 ± 0.06 (368.15 K).

As to `CC1CCCCC1` [methylcyclohexane] + COCC[N+]1(C)CCCC1.O=S(=O)([N-]S(=O)(=O)C(F)(F)F)C(F)(F)F, the activity coefficient worked out at 15.4 ± 1.1 (318.15 K); 14.4 ± 1 (328.15 K); 13.5 ± 0.9 (338.15 K); 12.7 ± 0.9 (348.15 K); 12 ± 0.8 (358.15 K); 11.2 ± 0.8 (368.15 K).

`CCCCCCCCC` [nonane] + COCC[N+]1(C)CCCC1.O=S(=O)([N-]S(=O)(=O)C(F)(F)F)C(F)(F)F: the activity coefficient is, setting by setting: (318.15 K) 58.1 ± 4; (328.15 K) 52.9 ± 3.6; (338.15 K) 48.4 ± 3.3; (348.15 K) 44.3 ± 3; (358.15 K) 41 ± 2.8; (368.15 K) 37.8 ± 2.6.

For `C=CCCCCCC` [oct-1-ene] + COCC[N+]1(C)CCCC1.O=S(=O)([N-]S(=O)(=O)C(F)(F)F)C(F)(F)F, the activity coefficient is 20.8 ± 1.4 (318.15 K); 19.5 ± 1.3 (328.15 K); 18.2 ± 1.2 (338.15 K); 17.3 ± 1.2 (348.15 K); 16.3 ± 1.1 (358.15 K); 15.6 ± 1.1 (368.15 K).

For the compound `CCCCCCCC` [octane] + COCC[N+]1(C)CCCC1.O=S(=O)([N-]S(=O)(=O)C(F)(F)F)C(F)(F)F, the activity coefficient amounted to 40.5 ± 2.8 (318.15 K); 36.9 ± 2.5 (328.15 K); 33.9 ± 2.3 (338.15 K); 31.4 ± 2.1 (348.15 K); 29 ± 2 (358.15 K); 27 ± 1.8 (368.15 K).

Consider `CCCC(C)=O` [pentan-2-one] + COCC[N+]1(C)CCCC1.O=S(=O)([N-]S(=O)(=O)C(F)(F)F)C(F)(F)F, for which the activity coefficient is, setting by setting: (318.15 K) 0.83 ± 0.05; (328.15 K) 0.84 ± 0.05; (338.15 K) 0.86 ± 0.06; (348.15 K) 0.87 ± 0.06; (358.15 K) 0.89 ± 0.06; (368.15 K) 0.9 ± 0.06.

On to `CCC(=O)CC` [pentan-3-one] + COCC[N+]1(C)CCCC1.O=S(=O)([N-]S(=O)(=O)C(F)(F)F)C(F)(F)F, for which the activity coefficient is, setting by setting: (318.15 K) 0.831 ± 0.054; (328.15 K) 0.851 ± 0.055; (338.15 K) 0.871 ± 0.056; (348.15 K) 0.887 ± 0.056; (358.15 K) 0.905 ± 0.057; (368.15 K) 0.919 ± 0.058.

Regarding `CCCCC` [pentane] + COCC[N+]1(C)CCCC1.O=S(=O)([N-]S(=O)(=O)C(F)(F)F)C(F)(F)F, the activity coefficient is, setting by setting: (318.15 K) 13.4 ± 0.9; (328.15 K) 12.7 ± 0.9; (338.15 K) 12.1 ± 0.8; (348.15 K) 11.5 ± 0.8; (358.15 K) 11 ± 0.8; (368.15 K) 10.5 ± 0.7.

Consider `CCCO` [propan-1-ol] + COCC[N+]1(C)CCCC1.O=S(=O)([N-]S(=O)(=O)C(F)(F)F)C(F)(F)F, for which the activity coefficient reads like this: (318.15 K) 2.2 ± 0.15; (328.15 K) 2.02 ± 0.14; (338.15 K) 1.86 ± 0.13; (348.15 K) 1.71 ± 0.11; (358.15 K) 1.58 ± 0.1; (368.15 K) 1.48 ± 0.1.

Regarding `CC(C)O` [propan-2-ol] + COCC[N+]1(C)CCCC1.O=S(=O)([N-]S(=O)(=O)C(F)(F)F)C(F)(F)F, the activity coefficient came out at 2 ± 0.14 (318.15 K); 1.83 ± 0.12 (328.15 K); 1.67 ± 0.11 (338.15 K); 1.54 ± 0.1 (348.15 K); 1.43 ± 0.09 (358.15 K); 1.34 ± 0.09 (368.15 K).

As to `c1ccncc1` [pyridine] + COCC[N+]1(C)CCCC1.O=S(=O)([N-]S(=O)(=O)C(F)(F)F)C(F)(F)F, the activity coefficient by setting is: (318.15 K) 0.602 ± 0.042; (328.15 K) 0.61 ± 0.043; (338.15 K) 0.618 ± 0.043; (348.15 K) 0.625 ± 0.043; (358.15 K) 0.633 ± 0.044; (368.15 K) 0.639 ± 0.044.

As for `C=Cc1ccccc1` [styrene] + COCC[N+]1(C)CCCC1.O=S(=O)([N-]S(=O)(=O)C(F)(F)F)C(F)(F)F, the activity coefficient was 1.29 ± 0.08 (318.15 K); 1.32 ± 0.09 (328.15 K); 1.33 ± 0.09 (338.15 K); 1.36 ± 0.09 (348.15 K); 1.37 ± 0.09 (358.15 K); 1.39 ± 0.09 (368.15 K).

With `C1CCOC1` [tetrahydrofuran] + COCC[N+]1(C)CCCC1.O=S(=O)([N-]S(=O)(=O)C(F)(F)F)C(F)(F)F, the activity coefficient (318.15 K) turned out to be 0.81 ± 0.05; the activity coefficient (328.15 K) came to 0.83 ± 0.05; the activity coefficient (338.15 K) worked out at 0.84 ± 0.05; the activity coefficient (348.15 K) is 0.86 ± 0.06; the activity coefficient (358.15 K) stood at 0.87 ± 0.06; the activity coefficient (368.15 K) is 0.88 ± 0.06.

Take `c1ccsc1` [thiophene] + COCC[N+]1(C)CCCC1.O=S(=O)([N-]S(=O)(=O)C(F)(F)F)C(F)(F)F: the activity coefficient reads like this: (318.15 K) 0.885 ± 0.056; (328.15 K) 0.897 ± 0.057; (338.15 K) 0.909 ± 0.058; (348.15 K) 0.918 ± 0.058; (358.15 K) 0.929 ± 0.059; (368.15 K) 0.938 ± 0.059.

In the case of `Cc1ccccc1` [toluene] + COCC[N+]1(C)CCCC1.O=S(=O)([N-]S(=O)(=O)C(F)(F)F)C(F)(F)F, the activity coefficient is, setting by setting: (318.15 K) 1.48 ± 0.1; (328.15 K) 1.5 ± 0.1; (338.15 K) 1.51 ± 0.1; (348.15 K) 1.53 ± 0.1; (358.15 K) 1.55 ± 0.1; (368.15 K) 1.56 ± 0.1.

With `O` [water] + COCC[N+]1(C)CCCC1.O=S(=O)([N-]S(=O)(=O)C(F)(F)F)C(F)(F)F, the activity coefficient was 3.15 ± 0.21 (318.15 K); 2.81 ± 0.19 (328.15 K); 2.51 ± 0.17 (338.15 K); 2.26 ± 0.15 (348.15 K); 2.05 ± 0.14 (358.15 K); 1.85 ± 0.12 (368.15 K).
